# Laboratory results reported in ChEMBL document CHEMBL3045667, “Design, synthesis, and anticonvulsant activity of novel quinazolinone analogues” (Med Chem Res, 2011).
# Columns and labels:
# Mus musculus [1] = experiment: Anticonvulsant activity in ip dosed Mus musculus (mouse) assessed as protection against pentylenetetrazole-induced seizures administered 1 hr before pentylenetetrazole challenge measured after 30 min; type: functional; conditions: read-out: PD50
# Mus musculus [2] = experiment: Anticonvulsant activity in Mus musculus (mouse) assessed as protection against pentylenetetrazole-induced seizures at 150 mg/kg, ip administered 1 hr before pentylenetetrazole challenge measured after 30 min; type: functional; conditions: route intraperitoneal
# Mus musculus [3] = experiment: Anticonvulsant activity in Mus musculus (mouse) assessed as protection against pentylenetetrazole-induced seizures at 100 mg/kg, ip administered 1 hr before pentylenetetrazole challenge measured after 30 min; type: functional; conditions: route intraperitoneal
# Mus musculus [4] = experiment: Anticonvulsant activity in Mus musculus (mouse) assessed as protection against pentylenetetrazole-induced seizures at 50 mg/kg, ip administered 1 hr before pentylenetetrazole challenge measured after 30 min; type: functional; conditions: route intraperitoneal
# [5] = Lipophilicity, log P of the compound; type: physicochemical; conditions: octanol/water
# Mus musculus [6] = experiment: Anticonvulsant activity in Mus musculus (mouse) assessed as protection against pentylenetetrazole-induced seizures at 15 mg/kg, ip administered 1 hr before pentylenetetrazole challenge measured after 30 min; type: functional; conditions: route intraperitoneal
# Mus musculus [7] = experiment: Anticonvulsant activity in Mus musculus (mouse) assessed as protection against pentylenetetrazole-induced seizures at 10 mg/kg, ip administered 1 hr before pentylenetetrazole challenge measured after 30 min; type: functional; conditions: route intraperitoneal
# Mus musculus [8] = experiment: Anticonvulsant activity in Mus musculus (mouse) assessed as protection against pentylenetetrazole-induced seizures at 20 mg/kg, ip administered 1 hr before pentylenetetrazole challenge measured after 30 min; type: functional; conditions: route intraperitoneal
smiles,measurement,setting,value
O=c1c2ccccc2nc(N/N=C/c2ccc(Cl)cc2)n1-c1ccccc1,ED50,Mus musculus [1],50 mg/kg
same,Activity,Mus musculus [2],100%
same,Activity,Mus musculus [3],100%
same,Activity,Mus musculus [4],50%
same,logP,[5],5.53
O=C(CSc1nc2ccccc2c(=O)n1-c1ccccc1)c1ccc(Br)cc1,ED50,Mus musculus [1],78 mg/kg
same,Activity,Mus musculus [2],100%
same,Activity,Mus musculus [3],50%
same,Activity,Mus musculus [4],37.5%
same,logP,[5],5.77
O=C1C=C(Sc2nc3ccccc3c(=O)n2-c2ccccc2)C(=O)N=N1,ED50,Mus musculus [1],66 mg/kg
same,Activity,Mus musculus [2],100%
same,Activity,Mus musculus [3],62.5%
same,Activity,Mus musculus [4],37.5%
same,logP,[5],2.13
O=C1NN=C(c2ccccc2)C(c2ccccc2)C1Sc1nc2ccccc2c(=O)n1-c1ccccc1 (stereo unspecified),ED50,Mus musculus [1],68 mg/kg
same,Activity,Mus musculus [2],87.5%
same,Activity,Mus musculus [3],62.5%
same,Activity,Mus musculus [4],37.5%
same,logP,[5],6.4
O=C(CSc1nc2ccccc2c(=O)n1-c1ccccc1)c1ccc(Cl)cc1,ED50,Mus musculus [1],80 mg/kg
same,Activity,Mus musculus [2],87.5%
same,Activity,Mus musculus [3],62.5%
same,Activity,Mus musculus [4],25%
same,logP,[5],5.5
CCn1c(SCC(=O)c2ccc(Br)cc2)nc2ccccc2c1=O,ED50,Mus musculus [1],86 mg/kg
same,Activity,Mus musculus [2],87.5%
same,Activity,Mus musculus [3],50%
same,Activity,Mus musculus [4],37.5%
same,logP,[5],4.45
COc1ccc(C(=O)CSc2nc3ccccc3c(=O)n2-c2ccccc2)cc1,ED50,Mus musculus [1],85 mg/kg
same,Activity,Mus musculus [2],87.5%
same,Activity,Mus musculus [3],50%
same,Activity,Mus musculus [4],37.5%
same,logP,[5],4.82
N#Cc1cnn(-c2nc3ccccc3c(=O)n2-c2ccccc2)c1N,ED50,Mus musculus [1],90 mg/kg
same,Activity,Mus musculus [2],87.5%
same,Activity,Mus musculus [3],50%
same,Activity,Mus musculus [4],25%
same,logP,[5],3.01
COc1ccc(/C=N/Nc2nc3ccccc3c(=O)n2-c2ccccc2)cc1OC,ED50,Mus musculus [1],83 mg/kg
same,Activity,Mus musculus [2],87.5%
same,Activity,Mus musculus [3],62.5%
same,Activity,Mus musculus [4],25%
same,logP,[5],4.72
O=c1c2ccccc2n2c(-c3ccc(Cl)cc3)nnc2n1-c1ccccc1,ED50,Mus musculus [1],64 mg/kg
same,Activity,Mus musculus [2],100%
same,Activity,Mus musculus [3],62.5%
same,Activity,Mus musculus [4],37.5%
same,logP,[5],5.25
COc1ccc(-c2nnc3n(-c4ccccc4)c(=O)c4ccccc4n23)cc1OC,ED50,Mus musculus [1],160 mg/kg
same,Activity,Mus musculus [2],50%
same,Activity,Mus musculus [3],37.5%
same,Activity,Mus musculus [4],12.5%
same,logP,[5],4.44
CN1C(=O)CN=C(c2ccccc2)c2cc(Cl)ccc21 [DIAZEPAM],ED50,Mus musculus [1],2 mg/kg
CCC1(c2ccccc2)C(=O)NC(=O)NC1=O [PHENOBARBITAL],Activity,Mus musculus [6],50%
same,ED50,Mus musculus [1],16 mg/kg
same,Activity,Mus musculus [7],37.5%
same,Activity,Mus musculus [8],62.5%
same,logP,[5],1.36
